The values that follow come from patent publication US20230117034A1, “PYRAZOLOTRIAZINES” (Bayer Aktiengesellschaft, priority 2019, published 2023).

A value given as a limit tells only on which side of the number the result lay.

One assay deals with T1, CDK9/CycT1 (Homo sapiens, UniProt P50750).
T1 construct: Recombinant full-length His-tagged human CDK9 and CycT1; purchased Life Technologies PV4131; host or cells: insect cells
Put plainly: CDK9/CycT1 high ATP kinase assay (TR-FRET, 2 mM ATP). The assay is classed as biochemical. The conditions noted are these: 2 mM ATP (high ATP); median; read-out: CDK9/CyclinT1, 2 mM ATP (high ATP), IC50 (median). The method, boiled down: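 Full-length His-tagged human CDK9/CycT1 (insect cell, ~0.5 μg/mL) preincubated 15 min at 22 °C with compound in Tris pH 8.0, MgCl2, DTT buffer before reaction with biotinylated peptide substrate at high ATP (2 mM).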
In general terms: In TR-FRET formats the signal depends on donor and acceptor labels being close together.

The target in assay [1] is T2, CDK12 (nuclear staining in CAL-120 cells) (Homo sapiens, UniProt Q9NYV4).
T2 construct: endogenous in cells; host or cells: CAL-120 human breast cancer cells (DSMZ ACC 459)
T2 sequence (Q9NYV4 whole entry): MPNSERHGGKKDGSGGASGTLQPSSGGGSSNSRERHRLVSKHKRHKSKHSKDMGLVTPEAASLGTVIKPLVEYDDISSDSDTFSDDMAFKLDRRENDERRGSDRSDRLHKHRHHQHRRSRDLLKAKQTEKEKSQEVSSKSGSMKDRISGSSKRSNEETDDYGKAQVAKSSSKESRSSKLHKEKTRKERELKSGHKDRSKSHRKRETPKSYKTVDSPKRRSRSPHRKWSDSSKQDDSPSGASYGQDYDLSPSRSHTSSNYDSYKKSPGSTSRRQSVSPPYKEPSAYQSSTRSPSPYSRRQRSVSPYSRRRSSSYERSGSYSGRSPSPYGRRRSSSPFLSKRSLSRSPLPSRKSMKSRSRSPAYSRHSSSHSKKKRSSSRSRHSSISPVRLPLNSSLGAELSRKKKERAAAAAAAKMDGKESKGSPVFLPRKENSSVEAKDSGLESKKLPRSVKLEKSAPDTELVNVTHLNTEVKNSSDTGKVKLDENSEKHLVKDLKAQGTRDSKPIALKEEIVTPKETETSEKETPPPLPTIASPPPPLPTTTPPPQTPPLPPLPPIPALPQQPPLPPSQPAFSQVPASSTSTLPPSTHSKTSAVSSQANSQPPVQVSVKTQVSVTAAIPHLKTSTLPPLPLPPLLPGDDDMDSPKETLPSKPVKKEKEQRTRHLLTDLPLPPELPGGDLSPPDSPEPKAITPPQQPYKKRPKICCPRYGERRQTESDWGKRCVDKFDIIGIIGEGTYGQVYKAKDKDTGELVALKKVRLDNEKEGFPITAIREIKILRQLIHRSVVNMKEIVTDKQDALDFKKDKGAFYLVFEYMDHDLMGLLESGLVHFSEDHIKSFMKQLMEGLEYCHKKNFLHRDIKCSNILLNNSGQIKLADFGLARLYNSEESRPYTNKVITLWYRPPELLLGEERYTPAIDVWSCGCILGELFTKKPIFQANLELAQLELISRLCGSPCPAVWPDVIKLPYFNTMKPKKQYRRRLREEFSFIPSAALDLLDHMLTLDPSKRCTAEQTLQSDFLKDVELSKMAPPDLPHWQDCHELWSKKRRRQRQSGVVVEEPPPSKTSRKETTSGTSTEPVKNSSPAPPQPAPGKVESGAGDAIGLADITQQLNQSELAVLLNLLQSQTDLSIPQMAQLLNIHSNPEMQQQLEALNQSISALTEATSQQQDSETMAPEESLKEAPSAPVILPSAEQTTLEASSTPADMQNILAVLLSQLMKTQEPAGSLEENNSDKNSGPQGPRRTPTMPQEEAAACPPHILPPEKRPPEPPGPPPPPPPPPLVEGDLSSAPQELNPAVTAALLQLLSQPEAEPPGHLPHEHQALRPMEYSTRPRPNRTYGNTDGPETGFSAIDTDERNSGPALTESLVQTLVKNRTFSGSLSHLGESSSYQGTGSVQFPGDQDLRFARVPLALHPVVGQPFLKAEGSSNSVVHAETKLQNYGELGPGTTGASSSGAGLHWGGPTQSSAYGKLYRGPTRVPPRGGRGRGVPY
T2 sequence (O75909 whole entry partner): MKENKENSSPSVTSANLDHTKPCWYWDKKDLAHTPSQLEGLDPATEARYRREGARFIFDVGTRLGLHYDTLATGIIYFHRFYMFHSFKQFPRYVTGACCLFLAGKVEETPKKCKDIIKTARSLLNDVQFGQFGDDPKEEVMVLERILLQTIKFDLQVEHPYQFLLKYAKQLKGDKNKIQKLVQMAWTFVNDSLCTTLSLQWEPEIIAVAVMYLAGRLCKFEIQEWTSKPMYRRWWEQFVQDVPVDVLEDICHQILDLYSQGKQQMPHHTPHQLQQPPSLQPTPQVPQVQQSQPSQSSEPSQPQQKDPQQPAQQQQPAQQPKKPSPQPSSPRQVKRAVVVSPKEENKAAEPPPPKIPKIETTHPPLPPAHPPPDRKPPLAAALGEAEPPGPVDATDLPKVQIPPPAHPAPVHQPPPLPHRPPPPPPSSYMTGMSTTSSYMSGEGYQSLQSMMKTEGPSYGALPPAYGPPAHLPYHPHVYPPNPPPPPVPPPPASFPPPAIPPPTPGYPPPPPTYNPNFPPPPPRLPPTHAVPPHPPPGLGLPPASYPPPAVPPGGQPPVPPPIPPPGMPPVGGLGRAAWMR
Put plainly: CDK12 nuclear protein level: immunofluorescence/high content analysis (CAL-120). It counts as cell-based. The conditions noted are these: for DC50: CAL-120 cells, 24 h, immunofluorescence, 50% reduction of nuclear CDK12 staining intensity, median, read-out: CDK12 degradation IF, DC50- [mol/l] (median); for (IC50 CDK12 high ATP) to (Degradation DC50 CDK12) ratio: ratio of IC50 CDK12 high ATP kinase assay to DC50 CDK12 degradation (IF, CAL-120). The essentials: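 CAL-120 cells were treated with compound for 24 h at 37 °C, fixed with PFA and immunostained for CDK12. Nuclear CDK12 intensity was quantified by automated image analysis and normalized to DMSO and control. DC50 is the concentration giving 50% reduction of nuclear staining.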

For assay [2], the target named is T3, CYCLIN K (nuclear staining in CAL-120 cells) (Homo sapiens, UniProt O75909).
T3 construct: endogenous in cells; host or cells: CAL-120 human breast cancer cells (DSMZ ACC 459)
T3 sequence (O75909 whole entry): as the sequence (O75909 whole entry partner) above
T3 sequence (Q9NYV4 whole entry partner): as the sequence (Q9NYV4 whole entry) above
Put plainly: CYCLIN K nuclear protein level: immunofluorescence high content analysis (CAL-120). It counts as cell-based. Particulars: 24 h, 50% reduction of nuclear CCNK staining intensity, median, read-out: CYCLIN K degradation IF, DC50-[mol/l] (median). The method, boiled down:
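CAL-120 breast cancer cells treated in dose-response for 24 h at 37 °C, PFA-fixed and immunostained for cyclin K with Hoechst counterstain. Confocal imaging quantified nuclear intensity; DC50 is the concentration giving 50% reduction of nuclear CCNK staining, normalized to DMSO and control.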

T1 sequence (P50750 whole entry): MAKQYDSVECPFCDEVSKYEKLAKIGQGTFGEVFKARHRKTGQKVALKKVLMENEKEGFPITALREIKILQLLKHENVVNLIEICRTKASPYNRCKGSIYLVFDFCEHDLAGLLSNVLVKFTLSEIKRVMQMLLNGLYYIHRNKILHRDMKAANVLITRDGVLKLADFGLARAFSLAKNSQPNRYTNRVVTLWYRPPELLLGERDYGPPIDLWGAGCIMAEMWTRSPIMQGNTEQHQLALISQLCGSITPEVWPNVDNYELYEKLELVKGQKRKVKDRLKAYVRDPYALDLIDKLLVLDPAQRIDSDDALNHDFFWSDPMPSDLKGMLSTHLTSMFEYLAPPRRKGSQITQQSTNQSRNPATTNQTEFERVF
T1 sequence (O60563 whole entry partner): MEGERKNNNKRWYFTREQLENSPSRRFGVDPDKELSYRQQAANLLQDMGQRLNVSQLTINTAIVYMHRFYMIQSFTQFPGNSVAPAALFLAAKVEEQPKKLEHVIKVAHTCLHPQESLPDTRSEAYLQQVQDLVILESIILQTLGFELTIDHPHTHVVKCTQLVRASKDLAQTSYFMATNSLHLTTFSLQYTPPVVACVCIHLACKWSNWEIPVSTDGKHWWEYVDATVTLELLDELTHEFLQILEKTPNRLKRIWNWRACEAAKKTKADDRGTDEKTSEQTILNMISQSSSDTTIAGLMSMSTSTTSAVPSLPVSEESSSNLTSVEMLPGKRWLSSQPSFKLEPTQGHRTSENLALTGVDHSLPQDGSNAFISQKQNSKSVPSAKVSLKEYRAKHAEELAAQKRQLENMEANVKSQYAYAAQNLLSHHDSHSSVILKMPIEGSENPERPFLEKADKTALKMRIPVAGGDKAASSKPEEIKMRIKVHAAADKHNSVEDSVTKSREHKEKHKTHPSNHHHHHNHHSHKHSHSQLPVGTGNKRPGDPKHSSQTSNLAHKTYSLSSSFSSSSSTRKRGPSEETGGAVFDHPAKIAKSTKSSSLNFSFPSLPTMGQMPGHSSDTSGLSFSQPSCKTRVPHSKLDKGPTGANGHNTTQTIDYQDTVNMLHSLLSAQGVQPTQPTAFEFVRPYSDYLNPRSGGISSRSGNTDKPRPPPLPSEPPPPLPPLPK

Turning to `Clc1cc2nc(CNc3nc(N4CCOCC4)nc4c(-c5cncs5)cnn34)[nH]c2cc1Cl` [Example 443, N-[(5,6-dichloro-1H-benzimidazol-2-yl)methyl]-2-(morpholin-4-yl)-8-(1,3-thiazol-5-yl)pyrazolo[1,5-a][1,3,5]triazin-4-amine], at CDK9/CycT1, the IC50 was over 20000 nM. In addition, in assay [1], the DC50 is 4.23 nM and the “(IC50 CDK12 high ATP) to (Degradation DC50 CDK12) ratio” value worked out at 941. For the same compound, the DC50 in assay [2] stood at 2.22 nM.
In the same order, the values of `Cn1cc(-c2cnn3c(NCc4nc5c(F)c(F)ccc5[nH]4)nc(N4CCOCC4)nc23)cn1` [Example 418, N-[(4,5-difluoro-1H-benzimidazol-2-yl)methyl]-8-(1-methyl-1H-pyrazol-4-yl)-2-(morpholin-4-yl)pyrazolo[1,5-a][1,3,5]triazin-4-amine] are over 20000 nM, 39 nM, over 513 and 2.4 nM.
Turning to `Fc1cccc2[nH]c(CNc3nc(N4CCN5CCC4CC5)nc4c(C(F)(F)F)cnn34)nc12` [Example 410, 2-(1,4-diazabicyclo[3.2.2]nonan-4-yl)-N-[(4-fluoro-1H-benzimidazol-2-yl)methyl]-8-(trifluoromethyl)pyrazolo[1,5-a][1,3,5]triazin-4-amine], the IC50 on CDK9/CycT1 is over 20000 nM. The values for the DC50 in assay [1] and in assay [2] were 1.19 nM and 0.453 nM, respectively. Besides, the “(IC50 CDK12 high ATP) to (Degradation DC50 CDK12) ratio” value in assay [1] is 1336.
`Fc1cccc(-c2nnc(CNc3nc(N4CCOCC4)nc4c(Br)cnn34)[nH]2)c1` [Example 44, 8-bromo-N-{[5-(3-fluorophenyl)-4H-1,2,4-triazol-3-yl]methyl}-2-(morpholin-4-yl)pyrazolo[1,5-a][1,3,5]triazin-4-amine]: on CDK9/CycT1, the IC50 stood at 885 nM. Besides, in assay [1], the DC50 is 1.71 nM and the “(IC50 CDK12 high ATP) to (Degradation DC50 CDK12) ratio” value is recorded as 871. Besides, the DC50 in assay [2] was 2.58 nM.
For the compound `OC[C@H]1CCCCN1c1nc(NCc2nc3ccccc3[nH]2)n2ncc(Br)c2n1` [Example 60, [(2R)-1-(4-{[(1H-benzimidazol-2-yl)methyl]amino}-8-bromopyrazolo[1,5-a][1,3,5]triazin-2-yl)piperidin-2-yl]methanol], the IC50 at CDK9/CycT1 is 7340 nM. In addition, in assay [1], the DC50 worked out at 9.25 nM and the “(IC50 CDK12 high ATP) to (Degradation DC50 CDK12) ratio” value was 202. The DC50 in assay [2] was 3.05 nM.
Regarding `CN1CCN(c2nc(NCc3nc4c(F)c(F)ccc4[nH]3)n3ncc(C4CC4(F)F)c3n2)CC1` (stereo not drawn) [Example 429, N-[(4,5-difluoro-1H-benzimidazol-2-yl)methyl]-8-(2,2-difluorocyclopropyl)-2-(4-methylpiperazin-1-yl)pyrazolo[1,5-a][1,3,5]triazin-4-amine], the IC50 at CDK9/CycT1 was over 20000 nM. In addition, in assay [1], the DC50 is 4.32 nM and the “(IC50 CDK12 high ATP) to (Degradation DC50 CDK12) ratio” value is over 4626. Besides, the DC50 in assay [2] came to 3.86 nM.
In the same order, the values of `Fc1ccc2[nH]c(CNc3nc(N4CCOCC4)nc4c(CC(F)F)cnn34)nc2c1F.O=C(O)C(F)(F)F` [Example 425, trifluoroacetic acid N-[(4,5-difluoro-1H-benzimidazol-2-yl)methyl]-8-(2,2-difluoroethyl)-2-(morpholin-4-yl)pyrazolo[1,5-a][1,3,5]triazin-4-amine] are over 20000 nM, 2.51 nM, 852 and 0.545 nM.
On to `FC(F)(F)c1cnn2c(NCc3nnc(-c4ccccc4)[nH]3)nc(N3CCOCC3)nc12` [Example 427, 2-(morpholin-4-yl)-N-[(5-phenyl-4H-1,2,4-triazol-3-yl)methyl]-8-(trifluoromethyl)pyrazolo[1,5-a][1,3,5]triazin-4-amine], for which the IC50 at CDK9/CycT1 was found to be 4230 nM. Moreover, the DC50 in assay [1] stood at 14.7 nM; in assay [2], 9.95 nM. The “(IC50 CDK12 high ATP) to (Degradation DC50 CDK12) ratio” value in assay [1] was 127.
Turning to `Fc1ccc2[nH]c(CNc3nc(N4CCOCC4)nc4c(-c5ccnnc5)cnn34)nc2c1F` [Example 417, N-[(4,5-difluoro-1H-benzimidazol-2-yl)methyl]-2-(morpholin-4-yl)-8-(pyridazin-4-yl)pyrazolo[1,5-a][1,3,5]triazin-4-amine], at CDK9/CycT1, the IC50 is over 1630 nM. Moreover, in assay [1], the DC50 was found to be 2.75 nM and the “(IC50 CDK12 high ATP) to (Degradation DC50 CDK12) ratio” value is recorded as over 2815. Moreover, the DC50 in assay [2] is 1.25 nM.
For `Brc1cnn2c(NCc3nc4ccccc4[nH]3)nc(OC3CCCCC3)nc12` [Example 406, N-[(1H-benzimidazol-2-yl)methyl]-8-bromo-2-(cyclohexyloxy)pyrazolo[1,5-a][1,3,5]triazin-4-amine], on CDK9/CycT1, the IC50 was over 20000 nM. In assay [1], the DC50 was 125 nM and the “(IC50 CDK12 high ATP) to (Degradation DC50 CDK12) ratio” value is over 160.
Take `Cc1cnn2c(NCc3nc4c(F)c(F)ccc4[nH]3)nc(N3CC4CCC(C3)N4)nc12` [Example 400, 2-(3,8-diazabicyclo[3.2.1]octan-3-yl)-N-[(4,5-difluoro-1H-benzimidazol-2-yl)methyl]-8-methylpyrazolo[1,5-a][1,3,5]triazin-4-amine]: the IC50 on CDK9/CycT1 was over 20000 nM. In assay [1], the DC50 was found to be 6.15 nM and the “(IC50 CDK12 high ATP) to (Degradation DC50 CDK12) ratio” value was over 2712.
For `CN1CCN(c2nc(NCc3nc4c(F)c(F)ccc4[nH]3)n3ncc(-c4nccs4)c3n2)CC1` [Example 415, N-[(4,5-difluoro-1H-benzimidazol-2-yl)methyl]-2-(4-methylpiperazin-1-yl)-8-(1,3-thiazol-2-yl)pyrazolo[1,5-a][1,3,5]triazin-4-amine], the IC50 on CDK9/CycT1 was over 20000 nM. In addition, in assay [1], the DC50 came to 105 nM and the “(IC50 CDK12 high ATP) to (Degradation DC50 CDK12) ratio” value is given as over 191.
Regarding `Clc1cc2nc(CNc3nc(N4CCOCC4)nc4c(-c5cscn5)cnn34)[nH]c2cc1Cl` [Example 424, N-[(5,6-dichloro-1H-benzimidazol-2-yl)methyl]-2-(morpholin-4-yl)-8-(1,3-thiazol-4-yl)pyrazolo [1,5-a][1,3,5]triazin-4-amine], at CDK9/CycT1, the IC50 is over 20000 nM. Moreover, in assay [1], the DC50 is 38.1 nM and the “(IC50 CDK12 high ATP) to (Degradation DC50 CDK12) ratio” value is recorded as over 524.
For `CC(C)c1cnn2c(NCc3nnc(-c4ccccc4)[nH]3)nc(N3CCN(C)CC3)nc12` [Example 37, 2-(4-methylpiperazin-1-yl)-N-[(5-phenyl-4H-1,2,4-triazol-3-yl)methyl]-8-(propan-2-yl)pyrazolo[1,5-a][1,3,5]triazin-4-amine], the IC50 at CDK9/CycT1 was over 20000 nM. In addition, in assay [1], the DC50 was determined as 42.8 nM and the “(IC50 CDK12 high ATP) to (Degradation DC50 CDK12) ratio” value is over 467.
In the case of `CC(C)c1cnn2c(NCc3nnc(-c4ccccc4)[nH]3)nc(N3CCOCC3)nc12` [Example 33, 2-(morpholin-4-yl)-N-[(5-phenyl-4H-1,2,4-triazol-3-yl)methyl]-8-(propan-2-yl)pyrazolo[1,5-a][1,3,5]triazin-4-amine], at CDK9/CycT1, the IC50 amounted to 14100 nM. Moreover, in assay [1], the DC50 worked out at 67.8 nM and the “(IC50 CDK12 high ATP) to (Degradation DC50 CDK12) ratio” value is on record as 77.
Consider `Cc1cnn2c(NCc3nc4ccccc4[nH]3)nc(N(C)CC(C)(C)O)nc12` [Example 397, 1-[(4-{[(1H-benzimidazol-2-yl)methyl]amino}-8-methylpyrazolo[1,5-a][1,3,5]triazin-2-yl)(methyl)amino]-2-methylpropan-2-ol], for which the IC50 on CDK9/CycT1 is over 20000 nM. In addition, in assay [1], the DC50 came out at 28.1 nM and the “(IC50 CDK12 high ATP) to (Degradation DC50 CDK12) ratio” value is listed as over 623.
As for `FC(F)n1cc(-c2cnn3c(NCc4nc5ccccc5[nH]4)nc(N4CCOCC4)nc23)cn1` [Example 421, N-[(1H-benzimidazol-2-yl)methyl]-8-[1-(difluoromethyl)-1H-pyrazol-4-yl]-2-(morpholin-4-yl)pyrazolo[1,5-a][1,3,5]triazin-4-amine], on CDK9/CycT1, the IC50 is over 20000 nM. In assay [1], the DC50 was 21.6 nM and the “(IC50 CDK12 high ATP) to (Degradation DC50 CDK12) ratio” value is listed as 397.
The like results for `Brc1cnn2c(NCc3nc4ccccc4[nH]3)nc(OCC3CC3)nc12` [Example 408, N-[(1H-benzimidazol-2-yl)methyl]-8-bromo-2-(cyclopropylmethoxy)pyrazolo[1,5-a][1,3,5]triazin-4-amine] were, in that order, over 20000 nM, 56.8 nM and over 352.
On to `CC(C)c1cnn2c(NCc3ncc(-c4ccccc4)[nH]3)nc(N(C)CC(C)(C)O)nc12` [Example 35, 2-methyl-1-{methyl[4-{[(5-phenyl-1H-imidazol-2-yl)methyl]amino}-8-(propan-2-yl)pyrazolo[1,5-a][1,3,5]triazin-2-yl]amino}propan-2-ol], for which, on CDK9/CycT1, the IC50 is 9150 nM. In addition, in assay [1], the DC50 turned out to be 27.3 nM and the “(IC50 CDK12 high ATP) to (Degradation DC50 CDK12) ratio” value came to 81.
